Test results published in patent publication US20240197719A1 (priority 2018, published 2024).

Columns and labels:
[1] = in vivo, iv; cited from earlier work
[2] = in vivo; cited from earlier work
[3] = in vivo

Structure (SMILES)	reported half-life [1]	incidence of adverse events [2]	incidence of common adverse reactions [2]	AUC [3]
C=C1CC[C@@]2(O)[C@H]3Cc4ccc(O)c5c4[C@@]2(CCN3CC2CC2)[C@H]1O5 [Nalmefene, 17-cyclopropylmethyl-4,5α-epoxy-6-methylenemorphinan-3,14-diol]	8 to 10.8 h	less than 1%	greater than 1%	
O=C1CC[C@@]2(O)[C@H]3Cc4ccc(O)c5c4[C@@]2(CCN3CC2CC2)[C@H]1O5 [naltrexone]				increased significantly
